Experiments:
[1] = biological target: Btk (Homo sapiens (Human), UniProt Q06187); test: Btk acellular kinase assay (TR-FRET)
[2] = tested on: DHL-6 cells; test: DHL-6 cell growth (Alamar Blue assay); assay type: cell-based; conditions: 3E4 cells/well, complete media

Chain of Btk (Q06187 whole entry): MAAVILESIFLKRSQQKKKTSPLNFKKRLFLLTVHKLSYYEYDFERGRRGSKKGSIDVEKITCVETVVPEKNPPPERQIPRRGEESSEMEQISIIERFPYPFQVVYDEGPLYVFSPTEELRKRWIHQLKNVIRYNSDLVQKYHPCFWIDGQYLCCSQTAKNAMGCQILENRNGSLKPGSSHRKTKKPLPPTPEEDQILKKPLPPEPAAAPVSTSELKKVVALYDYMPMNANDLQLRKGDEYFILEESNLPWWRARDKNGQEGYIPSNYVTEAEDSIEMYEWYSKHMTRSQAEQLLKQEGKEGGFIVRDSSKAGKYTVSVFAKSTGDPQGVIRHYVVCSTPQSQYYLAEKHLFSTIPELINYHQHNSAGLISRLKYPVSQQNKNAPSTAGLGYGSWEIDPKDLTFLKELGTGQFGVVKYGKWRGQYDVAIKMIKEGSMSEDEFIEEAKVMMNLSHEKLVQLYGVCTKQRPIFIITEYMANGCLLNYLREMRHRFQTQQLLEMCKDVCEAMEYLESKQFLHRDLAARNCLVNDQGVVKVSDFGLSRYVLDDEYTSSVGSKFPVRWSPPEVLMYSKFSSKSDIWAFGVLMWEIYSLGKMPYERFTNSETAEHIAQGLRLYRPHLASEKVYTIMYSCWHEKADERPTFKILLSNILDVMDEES

fold less potent than 4 [1] [fold]	SMILES	growth of DHL-6 cells [2]
28	C/C=C/C(=O)N1CCCC(n2nc(-c3ccc(Oc4ccccc4)cc3)c3c(N)ncnc32)C1 (centres unmarked) [Compound 5, (E)-1-(3-(4-amino-3-(4-phenoxyphenyl)-1H-pyrazolo[3,4-d]pyrimidin-1-yl)piperidin-1-yl)but-2-en-1-one]	–
–	CN(C)C/C=C/C(=O)N1CCCC(n2nc(-c3ccc(Oc4ccccc4)cc3)c3c(N)ncnc32)C1 (centres unmarked) [Compound 15, (E)-1-(3-(4-amino-3-(4-phenoxyphenyl)-1H-pyrazolo[3,4-d]pyrimidin-1-yl)piperidin-1-yl)-4-(dimethylamino)but-2-en-1-one]	inhibit growth

— patent publication US8476284B2, “Inhibitors of Bruton's tyrosine kinase” (Pharmacyclics, Inc., priority 2006, dated 2013)
